Here are results for 13 molecules from US10450288B2, “Hydroxy formamide derivatives and their use” (GLAXOSMITHKLINE INTELLECTUAL PROPERTY (NO.2) LIMITED, priority 2014, dated 2019).

Molecules are shown by their SMILES.

In experiment [1] the test system is human cardiac fibroblasts. The experiment is described as follows: Cell-based inhibition assay of generation of procollagen I C-terminal propeptide (PICP), PICP ELISA. The settings on record: Cardiac fibroblast; human cardiac fibroblasts, crowding media, 24 to 48 hr, PICP ELISA of media; read-out: pIC50, PICP cellular inhibition assay (converted). In outline:
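Cardiac fibroblasts (passage ≤6) treated 24–48 h at 37 °C with compounds in ficoll crowding medium containing 100 μM ascorbic acid, DMSO <0.3%. PICP secreted into the medium was quantified by ELISA, normalised to untreated controls and fitted to log(inhibitor)–response to give pIC50.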

Experiment [2] concerns human cardiac fibroblasts. Put plainly: Cell-based inhibition assay of mature collagen deposition (immunostaining). As to conditions: Cardiac fibroblast; human cardiac fibroblasts, crowding media, 24 to 48 hr, collagen I immunostaining normalized to nuclei; read-out: pIC50, mature collagen cellular inhibition assay (converted). The protocol: Cell-Based Inhibition Assay of Generation of Procollagen I C-Terminal Propeptide (PICP) and Mature Collagen:
An adaptation of the collagen deposition assay described by Chen, C. Z. C., et al., British Journal of Pharmacology, 2009, 158, 1196-1209 was used to examine effect of compounds on procollagen I processing and collagen deposition. In the adapted assay, human cardiac fibroblasts were utilized. Processing of procollagen I was determined by a PICP ELISA assay and deposition of mature collagen was determined by immunostaining.
Human cardiac fibroblasts were cultured and maintained until passage 6 in FGM-3 media (Lonza, #CC-3132) in a 37° C. humidified incubator with 5% CO2. They were then seeded in 96-well black wall, clear bottom plates at 10,000 to 15,000 cells per well in eagle's minimum essential media (EMEM, ATCC #30-2003) containing 10% fetal bovine serum (FBS, Life Technologies #10082147), 1% Glutamax (Life Technologies #35050061) and 1% Penicillin and Streptomycin (Life Technologies #15070063). These cultures were placed in 37° C. incubator. The next day, media were removed by aspiration and cells were rinsed with phosphate buffered saline. Crowding media (also called ficoll media) was prepared by adding 112.5 mg/ml of ficoll70 and 75 mg/ml ficoll400 (GE healthcare #17-0310-10 and 17-0300-10, respectively), 100 μM ascorbic acid, 1% Glutamax and 1% Penicillin and Streptomycin to EMEM media. Test compounds (dissolved in DMSO) were diluted into crowding media and then added to the cells. Final concentration of DMSO in crowding media was less than 0.3%. Cells were treated for 24 to 48 hr in a 37° C. incubator. At the end of the treatment period, cell media were collected. The level of PICP in the media were determined by a PICP ELISA assay (Quidel #8003) following the manufacturer's protocol. Potencies of test compounds were calculated by fitting PICP levels, relative to untreated controls, to log (inhibitor) vs. response equation using Graphpad Prism software 5.0 and expressed as pIC50.
For some compounds, deposition of mature collagen was measured by immunostaining in addition to PICP levels. At the end of the treatment period, cells on culture plate were fixed with 100% methanol (prechilled to −20° C.) for 10 min. Then the cells were immunostained with mouse anti-mature collagen I antibody (1:500 dilution, Sigma#C2456), anti-mouse secondary antibody Alexa647 (1:500 dilution, Invitrogen#A21236) and Hoechst (for nuclei, 2 μg/ml, Invitrogen#H3596). Fluorescent image acquisition was done using the Operetta High Content Imaging system (Perkin Elmer). For each image field, the intensity of mature collagen staining was normalized with the number of nuclei. Normalized collagen levels were used to calculate the potency of test compounds with Graphpad Prism software, as described above.

Turning to `CCCCC[C@@H](C(=O)NCNC(=O)c1ccc(-c2cc(CP(=O)(O)O)cc(OCC)c2)o1)[C@@H](CC)N(O)C=O` [Example 99, (3-ethoxy-5-(5-((((R)-2-((R)-1-(N-hydroxy-formamido)propyl)heptanamido)methyl)carbamoyl)furan-2-yl)benzyl) phosphonic acid], the IC50 in experiment [1] was < 3.98 µM; in experiment [2] it was < 1 µM.
On to `CCCCC[C@@H](C(=O)NCNC(=O)c1ccc(-c2cc(OCC)c(F)c(C(=O)O)c2)o1)[C@@H](CC)N(O)C=O` [Example 111, 3-ethoxy-2-fluoro-5-(5-((((R)-2-((R)-1-(N-hydroxy-formamido)propyl)heptanamido)methyl)carbamoyl)furan-2-yl)benzoic acid], for which the IC50 was < 3.98 µM in experiment [1] and < 1 µM in experiment [2].
On the same counts, the results for `CCCCC[C@@H](C(=O)NCNC(=O)c1ccc(-c2cc(O)cc(C(=O)O)c2)o1)[C@@H](CC)N(O)C=O` [Example 112, 3-hydroxy-5-(5-((((R)-2((R)-1-(N-hydroxyformamido)propyl)heptanamido)methyl)carbamoyl)furan-2-yl)benzoic acid] are < 3.98 µM and < 1 µM.
`CCCCC[C@@H](C(=O)NCNC(=O)c1ccc(-c2cc(OCC(=O)O)cc(C(=O)O)c2)o1)[C@@H](CC)N(O)C=O` [Example 113, 3-(carboxymethoxy)-5-(5-((((R)-2-((R)-1-(N-hydroxformamido)propyl)heptanamido)methyl)carbamoyl)furan-2-yl)benzoic acid]: the figures for the IC50 in experiment [1] and in experiment [2] were < 3.98 µM and < 1 µM, respectively.
For the molecule `CCCCC[C@@H](C(=O)NCNC(=O)c1ccc(-c2cc(OCC(=O)O)cc(C(=O)O)c2O)o1)[C@@H](CC)N(O)C=O` [Example 121, 5-(carboxymethoxy)-2-hydroxy-3-(5-((((R)-2-((R)-1-(N-hydroxyformamido)propyl)heptanamido)methyl)carbamoyl)furan-2-yl)benzoic acid], the values for the IC50 in experiment [1] and in experiment [2] were < 3.98 µM and < 1 µM, respectively.
For the molecule `CCOc1cc(C(=O)N(CC(=O)O)CC(=O)O)cc(-c2ccc(C(=O)NCNC(=O)[C@H](CCc3ccc(F)cc3F)[C@@H](CC)N(O)C=O)o2)c1` [Example 122, 2,2′-((3-(5-((((2R,3R)-2-(2,4-difluorophenethyl)-3-(N-hydroxyformamido)pentanamido)methyl)carbamoyl)furan-2-yl)-5-ethoxybenzoyl)azanediyl)diacetic acid], the IC50 in experiment [1] is < 3.98 µM; in experiment [2] it was < 1 µM.
On the same counts, the results for `CCOc1cc(-c2ccc(C(=O)NCNC(=O)[C@H](CCc3ccc(F)cc3F)[C@@H](CC)N(O)C=O)o2)ccc1C(=O)N[C@@H](CC(=O)O)C(=O)O` [Example 123, (S)-2-(4-(5-((((2R,3R)-2-(2,4-difluorophenethyl)-3-(N-hydroxyformamido)pentanamido)methyl)carbamoyl)furan-2-yl)-2-ethoxybenzamido) succinic acid] are < 3.98 µM and < 1 µM.
As for `CCOc1cc(-c2ccc(C(=O)NCNC(=O)[C@H](CCc3ccccc3)[C@@H](CC)N(O)C=O)o2)ccc1C(=O)N(CC(=O)O)CC(=O)O` [Example 124, 2,2′-((2-ethoxy-4-(5-((((2R,3R)-3-(N-hydroxyformamido)-2-phenethylpentanamido)methyl)carbamoyl)furan-2-yl)benzoyl)azanediyl) diacetic acid], the figures for the IC50 in experiment [1] and in experiment [2] were < 3.98 µM and < 1 µM, respectively.
As to `CCCCC[C@@H](C(=O)NCNC(=O)c1ccc(-c2ccc(C(=O)N[C@@H](CC(=O)O)C(=O)O)c(OCC(=O)O)c2)o1)[C@@H](CC)N(O)C=O` [Example 126, (S)-2-(2-(carboxymethoxy)-4-(5-((((R)-2-((R)-1-(N-hydroxyformamido)propyl)heptanamido)methyl)carbamoyl)furan-2-yl)benzamido) succinic acid], the IC50 in experiment [1] was < 3.98 µM; in experiment [2] it was < 1 µM.
Regarding `CCOc1cc(-c2ccc(C(=O)NCNC(=O)[C@H](CCc3ccccc3)[C@@H](CC)N(O)C=O)o2)ccc1C(=O)N[C@@H](CC(=O)O)C(=O)O` [Example 127, (S)-2-(2-ethoxy-4-(5-((((2R,3R)-3-(N-hydroxyformamido)-2-phenethylpentanamido)methyl)carbamoyl)furan-2-yl)benzamido) succinic acid], the IC50 was < 3.98 µM in experiment [1] and < 1 µM in experiment [2].
The corresponding values for `CCCCC[C@@H](C(=O)NCNC(=O)c1ccc(-c2cc(O)c(C(=O)O)c(OCC)c2)o1)[C@@H](CC)N(O)C=O` [Example 128, 2-ethoxy-6-hydroxy-4-(5-((((R)-2-((R)-1-(N-hydroxyformamido)propyl)heptanamido)methyl)carbamoyl)furan-2-yl)benzoic acid] are < 3.98 µM and < 1 µM.
Regarding `CCCCC[C@@H](C(=O)NCNC(=O)c1ccc(-c2ccc(C(=O)N[C@H](CC(=O)O)C(=O)O)c(OCC)c2)o1)[C@@H](CC)N(O)C=O` [Example 132, (R)-2-(2-ethoxy-4-(5-((((R)-2-((R)-1-(N-hydroxyformamido)propyl)heptanamido)methyl)carbamoyl)furan-2-yl)benzamido) succinic acid], the values for the IC50 in experiment [1] and in experiment [2] were < 3.98 µM and < 1 µM, respectively.
Regarding `CCCCC[C@@H](C(=O)NCNC(=O)c1ccc(-c2ccc(C(=O)NCP(=O)(O)O)c(OCC)c2)o1)[C@@H](CC)N(O)C=O` [Example 139, ((2-ethoxy-4-(5-((((R)-2-((R)-1-(N-hydroxyformamido)propyl)heptanamido)methyl)carbamoyl)furan-2-yl)benzamido)methyl)phosphonic acid], the IC50 in experiment [1] is < 3.98 µM; in experiment [2], < 1 µM.
